Experimental data taken from patent US20230000869A1, “NOVEL ALK2 INHIBITORS AND METHODS FOR INHIBITING BMP SIGNALING” (The Brigham and Women's Hospital, Inc., priority 2017, published 2023).

Molecular target: T1, Aldehyde Oxidase (AO) (Homo sapiens, UniProt Q06278)
T1 construct: tissue Frontage Laboratories (performed the study); host or cells: human liver cytosol (HLC), 2 mg/ml
T1 sequence (Q06278 1-1338): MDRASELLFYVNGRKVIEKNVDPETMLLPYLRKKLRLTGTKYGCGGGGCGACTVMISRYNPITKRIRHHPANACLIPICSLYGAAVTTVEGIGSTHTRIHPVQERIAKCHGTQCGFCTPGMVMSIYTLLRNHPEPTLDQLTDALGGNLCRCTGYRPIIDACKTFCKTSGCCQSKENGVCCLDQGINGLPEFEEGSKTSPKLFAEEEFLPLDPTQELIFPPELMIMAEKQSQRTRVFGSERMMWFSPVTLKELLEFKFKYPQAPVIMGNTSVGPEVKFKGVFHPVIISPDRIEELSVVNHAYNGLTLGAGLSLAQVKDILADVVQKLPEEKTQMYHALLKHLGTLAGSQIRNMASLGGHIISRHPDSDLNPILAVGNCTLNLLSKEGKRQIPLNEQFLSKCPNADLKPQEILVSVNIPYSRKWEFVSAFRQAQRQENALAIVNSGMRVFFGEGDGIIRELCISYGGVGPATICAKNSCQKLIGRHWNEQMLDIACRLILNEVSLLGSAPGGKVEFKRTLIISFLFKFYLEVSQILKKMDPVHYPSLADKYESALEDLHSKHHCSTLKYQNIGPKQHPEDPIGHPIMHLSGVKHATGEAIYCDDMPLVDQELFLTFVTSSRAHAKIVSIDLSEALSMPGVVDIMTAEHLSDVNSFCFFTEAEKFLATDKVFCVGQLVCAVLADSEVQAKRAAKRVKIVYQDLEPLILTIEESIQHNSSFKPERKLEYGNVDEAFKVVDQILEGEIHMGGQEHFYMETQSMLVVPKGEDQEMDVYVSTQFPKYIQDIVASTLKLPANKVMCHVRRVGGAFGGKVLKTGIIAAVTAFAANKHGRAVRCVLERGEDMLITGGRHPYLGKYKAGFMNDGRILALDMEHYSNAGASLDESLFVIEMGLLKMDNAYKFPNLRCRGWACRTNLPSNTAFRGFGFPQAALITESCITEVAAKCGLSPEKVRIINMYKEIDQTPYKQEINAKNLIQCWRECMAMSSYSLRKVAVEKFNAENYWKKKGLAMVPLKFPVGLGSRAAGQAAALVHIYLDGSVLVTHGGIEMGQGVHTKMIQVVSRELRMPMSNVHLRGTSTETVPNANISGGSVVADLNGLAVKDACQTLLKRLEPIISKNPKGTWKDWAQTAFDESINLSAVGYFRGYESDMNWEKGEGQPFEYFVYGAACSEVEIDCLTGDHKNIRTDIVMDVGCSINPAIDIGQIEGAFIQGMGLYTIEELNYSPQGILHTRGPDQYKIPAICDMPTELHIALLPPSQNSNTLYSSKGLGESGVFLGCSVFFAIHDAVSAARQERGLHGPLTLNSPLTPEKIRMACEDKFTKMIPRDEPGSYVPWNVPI
Test: Aldehyde oxidase (AO) oxidation study, metabolic stability in human liver cytosol
Assay type: in vitro ADME
Conditions: human liver cytosol 2 mg/ml, 1 μM substrate, 37° C.
Procedure: Experimental Procedure for Aldehyde Oxidase (AO) Oxidation Study (Frontage Laboratories (700 Pennsylvania Dr. Exton, Pa. 19341)
Determination of the of metabolic stability in human liver cytosol (HLC) and the identification of corresponding metabolites was done by incubating substrates (1 μM final concentration for metabolic stability or 10 μM final concentration for metabolite ID) with HLC (2 mg/ml, final concentration) in 100 mM potassium phosphate at pH 7.4. The reaction was initiated by adding HLC without preincubation. The mixture was then incubated at 37° C. for 1 h and samples were taken at 0, 30 and 60 min for analysis. The reaction was terminated by adding acetonitrile (ACN) (3×) followed by vortexing for 1 min then centrifuged. For the metabolic stability study, aliquotes of the supernatants were transferred to clean tubes and directly used for LC/MS/MS analysis. For the identification of metabolites, aliquots of supernatants were transferred to clean tubes and dried under a stream of N2. The residue was reconstituted in 30/70 (v/v) acetonitrile/water solution and injected onto LC/UV/MS system.
The instrument and method for the metabolic stability are as following: LC/MS/MS system: Agilent 1100 HPLC interfaced to Sciex API4000 mass spectrometer (ESI); HPLC column: ACE 3 C18-PFP, 50×2.1 mm, 5 μm. […]

c1ccc2c(-c3cnn4cc(-c5ccc(N6CCNCC6)cc5)cnc34)ccnc2c1 [TRND00262637-13]
30 minutes (%) (pH 7.4, sample at 30 min): 0.06% | 60 minutes (%) (pH 7.4, sample at 60 min): 0.02%
